Key:
HBV DNA in HepAD38 cells = assay: In vitro cell HBV DNA inhibitory activity (anti-HBV activity) in HepAD38 cells; assay type: cell-based; conditions: Hepatitis B virus, 144 h; anti-HBV activity in HepAD38 cells, 6 days treatment, intracellular capsid HBV DNA by qPCR; read-out: EC50
Method: A bottle of HepG2.2.15 or HepAD38 cells in good exponential growth state was taken, washed once by adding 5 mL PBS, and then thereto was added 3 mL trypsin. After digesting at room temperature for 5 min, 2 mL trypsin was discarded, and then the sample was placed in a cell culture incubator and digested for 10 min. The cells were taken out from time to time and observed under a microscope (whether the cells were individually round and there was no adhesion between the cells). 10 mL complete medium was added to terminate the digestion. After pipetting into a single cell suspension, 10 μL of the cell suspension was taken out for cell counting with a cell counter, and then diluted with a complete medium and adjusted to a cell density of 1*10^5 cells/mL. Then the cell suspension was seeded at 1 mL/well in a 24-well plate with a multi-channel pipette (the 24-well plate was coated with 50 μg/mL Collagen I solution in advance), and cultured in a constant temperature CO2 incubator for 48 h.
Different compounds dissolved in DMSO were subjected to two-fold gradient dilution (10 concentrations in total) with complete medium. The compound was added, and fresh medium containing the compound was used to replace the spent medium every 72 hours. The cells were treated with the compound for 6 days. After the supernatant was siphoned off, 300 μL lysate (10 mM Tris-HCl, 1 mM EDTA, and 1% NP-40) was added to each well. After lysing at room temperature for 10 min, DNA was extracted, and HBV DNA in the intracellular viral capsid was measured by real-time fluorescence quantitative PCR. The inhibition rate was calculated based on the Ct value, and the EC50 value was calculated by the four-parameter method.

[1] = In vivo pharmacokinetics (PK) study in mice; conditions: ICR mice, po 30 mg/kg
Method: ICR mice, weighing 18-20 g, were randomly divided into groups of three mice each after 3 to 5 days' acclimatization, and a series of the compounds were administered intragastrically to each group at a dose of 30 mg/kg. The test animals (ICR mice) were fasted for 12 hours before the administration and fed 4 hours after the administration. They were free to access water before and after the experiment. After the intragastric administration, about 0.1 mL of blood was collected from the orbits. Within 30 minutes after anticoagulation with EDTA-K2, the plasma was separated by centrifugation at 4° C. and 4000 rpm for 10 minutes. Immediately after collecting all plasma, it was stored at −20° C. for testing. 20 μL of the plasma sample to be tested and standard curve sample were pipetted, and then thereto was added 200 μL of an acetonitrile solution containing an internal standard (diazepam 20 mg/mL). The resulting mixture was oscillated and mixed uniformly for 5 min, and then centrifugated at 12000 rpm for 10 min. 75 μL supernatant was pipetted, and 75 μL ultrapure water was added thereto for dilution, and mixed evenly. 1 μL of the resulting solution was pipetted for LC/MS/MS determination.

Structure (SMILES): Cc1c(C(=O)Nc2ccc(F)c(C#N)c2)c(C)n(C)c1C(=O)C(=O)NC(C)(C)C [Example 13, 5-(2-(tert-butylamino)-2-oxoacetyl)-N-(3-cyano-4-fluorophenyl)-1,2,4-trimethyl-1H-pyrrole-3-carboxamide]
- EC50 (HBV DNA in HepAD38 cells): < 10 nM
- Liver AUC(0-6 h) ([1]; 0.25 h, 1 h, 6 h): 5834 ng/g
- Plasma AUC(0-6 h) ([1]; blood at 0.25 h, 1 h, 6 h): 1759 ng/mL
- Kp ([1]; mouse, liver/blood, AUC(0-6 h), read-out: Liver to blood ratio): 3.32
